Measured values taken from patent US20240238217A1, “USE OF CLOFOCTOL FOR THE TREATMENT OF INFLAMMATION” (INSTITUT NATIONAL DE LA SANTÉ ET DE LA RECHERCHE MÉDICALE, priority 2021, published 2024).
Like-named read-outs stand apart in the source and are kept apart here.

Experiments:
[1] = system: LPS-induced lung inflammation; assay: LPS-induced lung inflammation in mice (RT-qPCR of lung transcripts); assay type: in vivo, C57BL/6J mice; details: male mice, 50 mg/kg i.p. 1 h before and 8 h after i.n. LPS 10 μg/mouse, 24 h
Method: FIG. 5: Effects of clofoctol treatment on LPS-induced lung inflammation. Male C57BL/6J mice were treated i.p. with clofoctol (50 mg/kg) or vehicle 1 h before and 8 h after i.n. inoculation of LPS (10 μg/mouse) or PBS. Animals were sacrificed 24 h after LPS inoculation. mRNA copy numbers of genes were quantified by RT-qPCR. Data are expressed as fold change over average gene expression in PBS-treated animals. Results are expressed as the mean±SD (n=6). Significant differences were determined using the Mann-Whitney U test (**p<0.01).
C57BL/6 mice were inoculated by the intra-nasal route with LPS (Escherichia coli 0111:B4) at 10 μg/mouse. Clofoctol was injected i.p. 1 h before and 8 h after LPS administration. Mice were sacrificed 24 hrs after LPS inoculation.

[2] = system: IAV H1N1 A/California/04/2009 (pdm09); assay: IAV infection in mice: viral load, lung inflammation, pathology; assay type: in vivo, C57BL/6J mice; details: 50 mg/kg i.p.
SARS-COV-2 [3] = assay type: in vivo, K18-hACE2 transgenic C57BL/6J mice
MPI cells = assay: LPS-induced cytokine production by alveolar macrophage MPI cells (ELISA); assay type: cell-based, C57BL/6J mouse; details: clofoctol added 30 minutes prior to LPS 10 ng/ml, 24 h, supernatant ELISA
Method: FIG. 3: Effects of clofoctol treatment on LPS-induced cytokine production by alveolar macrophages. ELISA of IL-1β, IL-12p40, TNFα, and MCP-1 from supernatant of MPI cells pre-treated or not with clofoctol and stimulated or not with LPS during 24 h. The percentage cell viability post treatment is indicated. Significant differences were determined using the two-way ANOVA corrected for Dunnett's multiple comparisons test (viability test) or one-way ANOVA corrected for Dunnett's multiple comparisons test (n=7-11) (**p<0.01; ***p<0.001, ****p<0.0001).
Max Plank Institute (MPI) cells are self-renewing and non-transformed cells originated from fetal liver of C57BL/6J mouse. MPI cells were used as a model of alveolar macrophages, due to their closer profile (Fejer et al., 2013). Cells were cultivated in RPMI Glutamax with 10% FBS, 1% Penicillin/streptomycin, and 30 ng/mL GM-CSF and incubated on 37° ° C.5% CO2. MPI cells were used from passage 6 until passage 30 and they were negative for mycoplasma contamination, which was assessed with MycoAlert™ Mycoplasma Detection Kit (Lonza-Basel, Switzerland). […] Cytokine production was measured from the supernatant of cells after 24 h of stimulation, accordingly to protocol's manufactures for IL-1β, IL-12p40, TNF-α, and MCP-1 (R&D Systems—Minneapolis, MN). […]

[4] = system: IAV H1N1 A/California/04/2009 (pdm09); assay: Long-term sequela (fibrosis) imposed by IAV infection in mice; details: 50 mg/kg i.p. once a day for 4 days
SARS-CoV-2 [5] = assay: In vitro antiviral activity (IC95) of clofoctol; assay type: cell-based
[6] = system: PMA-differentiated THP-1 macrophages; assay: LPS-induced cytokine expression in PMA-differentiated THP-1 macrophages (RT-qPCR and ELISA); assay type: cell-based, human; details: clofoctol 1 hour prior to LPS 100 ng/mL
Method: FIG. 4: Effects of clofoctol treatment on LPS-induced cytokine mRNA expression by PMA-differentiated THP-1 macrophages. a, b, c and d) mRNA expression of MCP1, TNFα, IL-6 and IL-1β were quantified by RT-qPCR. Data are expressed as a fold-increase over the mean gene expression level in solvent control wells. (mean+/−SD from 3 experiments in duplicate). Significant differences were determined using the one-way ANOVA corrected for Dunnett's multiple comparisons test (**p<0.01; ***p<0.001, ****p<0.0001). ELISA of MCP1, TNFα and IL-6 (e, f and g) from supernatant of THP-1 cells pre-treated or not with Clofoctol or Dexamethasone and stimulated with LPS during 24 h. Results are expressed as the concentration of cytokine in pg/mL. (mean from one experiment in duplicate).
THP-1 designates a spontaneously immortalized monocyte-like cell line, derived from the peripheral blood of a childhood case of acute monocytic leukemia. Cells were cultivated in RPMI with HEPES without Glutamine complemented with 2 mM Glutamine, 10% FBS and 1% Penicillin/streptomycin and incubated at 37° C.-5% CO2. THP1 cells were used from passage 7 until passage 14 and they were negative for mycoplasma contamination, which was assessed with MycoAlert™ Mycoplasma Detection Kit (Lonza-Basel, Switzerland). […] In THP1, The levels of human cytokines were measured after 24 h of stimulation in the collected supernatants with human CCL2/MCP-1, IL-6 and TNF-α Duoset ELISA (R&D systems, Minneapolis, MN) according to the manufacturer's protocols.
Total RNA was extracted with NucleoSpin® RNA kit (Macherey-Nagel, Hoerdt, Germany). […] Relative quantification of MCP1, TNF-α, IL-6 and IL-1β was performed using the gene coding glyceraldehyde 3-phosphate dehydrogenase (GAPDH). Relative mRNA levels (2-ΔΔCt) were determined by comparing (a) the PCR cycle thresholds (Ct) for the gene of interest and the house keeping gene GAPDH (ΔCt) and (b) ΔCt values for treated and control groups (ΔΔCt). Data are expressed as a fold-increase over the mean gene expression level in solvent control wells.

[7] = female mice, day 4 post-infection
[8] = female C57BL/6 mice, single i.p. dose 62.5 mg/kg

With `CC(C)(C)CC(C)(C)c1ccc(O)c(Cc2ccc(Cl)cc2Cl)c1` [clofoctol, 2-[(2,4-dichlorophenyl)methyl]-4-(2,4,4-trimethylpentan-2-yl)phenol] the “expression of transcripts encoding IL-6, TNFα, IL-1β, IFN-γ, IL12p40 and CCL2 in lungs” value [1] was “markedly reduced”, the “IL-6 and IL-12p40 production in lungs” value ([2]; ELISA, 4 dpi) was “Reduced” and the “transcript expression of interferon-stimulated genes Mx1, ISG15 and Cxcl10” value ([2]; RT-qPCR) was “reduced”. The “viral RNA yields by RT-qPCR” value ([2]; day 2 and 4 post-infection) was “trend in reduced viral load”, the “infectious viral load in the lungs” value ([2]; day 2 and day 4 post-infection, titration on MDCK cells) was “slightly reduced” and the “expression of transcript encoding TNFα in lungs” value ([2]; day 2 post-infection, RT-qPCR) was “to a lower extent”. The “expression of transcripts encoding IL-6, IL-12p40, Ccl2, IFN-γ in lungs” value ([2]; day 2 post-infection, RT-qPCR) was “reduced”, the “lung pathology (histology, inflammation scoring)” value ([2]; day 4 post-infection, hematoxylin and eosin) was “only a minimal interstitial inflammation” and the “viral load by RT-qPCR” value (SARS-COV-2 [3]; female mice treated during the first 2 days, day 4 post-inoculation) was “decrease in viral load”. For the same compound, the “viral RNA yields in lungs by RT-qPCR” value (SARS-COV-2 [3]; female mice, 62.5 mg/kg i.p., day 2 post-infection) was “reduced viral load”, the “expression of transcripts encoding IL-6, TNFα, IL12p40, IFNβ, IFNγ and ISG Mx1, Ifi44, ISG15 in lungs” value (SARS-COV-2 [3]; female mice, 62.5 mg/kg i.p., day 2 post-infection, RT-qPCR) was “markedly reduced” and the “reduction of infectious viral load in the lungs vs vehicle” value (SARS-COV-2 [3]; female mice, 62.5 mg/kg i.p., day 2 post-infection, titration on Vero-81 cells) was “more than 1.1 log10”. For the same compound, the “expression of transcripts encoding inflammatory markers” value (SARS-COV-2 [3]; [7]) was “strongly decreased”, the “lung pathology (histology)” value (SARS-COV-2 [3]; [7]) was “only a minimal interstitial inflammation” and the “inflammatory score of lung sections” value (SARS-COV-2 [3]; female mice, day 4 post-infection, blinded scoring) was “reduces the inflammatory score”. The “infection-induced drop of Ocln and ZO1 transcript levels (epithelial barrier markers)” value (SARS-COV-2 [3]; female mice, day 4 post-infection, lungs) was “significantly reduced”, the “production of inflammatory cytokines IL-1β, IL-12p40 and TNF-α” value (MPI cells) was “inhibited, in a dose dependent manner” and the “clofoctol concentration in the lungs” value (62.5 mg/kg i.p. twice daily during two days, 1 h after the fourth administration) was 67 µM. For the same compound, the “plasma concentration relative to lung concentration” value [8] was “seven times lower”, the “time lung concentration remained above this level (61 μM)” value [8] was roughly 4 h and the “clofoctol concentration in the lungs” value (female C57BL/6 mice, single i.p. dose 62.5 mg/kg, 30 min after injection) was “up to 61 μM”. The “lung fibrosis (Red Sirius staining)” value ([4]; 28 days post-infection) was “tended to develop less fibrosis”, the body weight ([4]; IAV-infected mice) was “reduces body weight” and the “IC95 measured in vitro” value (SARS-CoV-2 [5]) was roughly 10 µM. The “expression of MCP1 and IL-6 genes” value ([6]; 5 hours, RT-qPCR) was “significantly reducing”, the “MCP1 and IL-6 protein in supernatant” value ([6]; 24 hours, ELISA) was “significantly reducing” and the “IL1-β and TNF-α expression/production” value ([6]; RT-qPCR (5 hours) and TNFα ELISA (24 hours)) was “not significantly modulating”.
